The values below come from ChEMBL document CHEMBL5344478, “Cytochrome bd oxidase: an emerging anti-tubercular drug target” (RSC Med Chem, 2024).

The nature of experiment [1]: Inhibition of Mycobacterium bovis BCG cytochrome bd oxidase with ATP synthase overexpression inverted membrane vesicles. It counts as cell membranes, Mycobacterium tuberculosis variant bovis, Membrane vesicle.
Experiment [2] is described as follows: Inhibition of wild type Mycobacterium bovis BCG cytochrome bd oxidase assessed as inhibition of oxygen consumption rate measured after 5 days by Methylene blue dye based assay. Also noted: species or system Mycobacterium tuberculosis variant bovis.

`NC(=O)NC(=O)c1nc(-c2cc3ccccc3o2)c(N)nc1N`: the IC50 in experiment [1] was found to be 21.2 µM. On the same count and under the same terms, then `c1ccc(CCNc2ncnc3ccccc23)cc1`, with 11 µM. As for `FC(F)(F)c1ccc(Oc2ccc(Nc3ncnc4ccccc34)cc2)cc1`, the 50% inhibitory concentration (IC50) in experiment [1] stood at 0.5 µM; in experiment [2], 0.8 µM.

`CCc1nc2ccc(Cl)cn2c1C(=O)NCc1ccc(N2CCC(c3ccc(OC(F)(F)F)cc3)CC2)cc1` [TELACEBEC]: half-maximal inhibition in experiment [1] (IC50) was put at 6.2 µM.

What is called IC50 is the concentration that inhibits the measured activity by half.
